From a melting point compilation (Tetko et al.; mined from patent text by program, amines drawn as free bases though some values may be those of a salt)

Row | melting point [°C] | SMILES
1 | 140 to 143 | COc1ccc(C(=O)Nc2ccc(-n3nc(C(F)(F)F)cc3C(F)(F)F)cc2)c(Cl)c1
2 | 155 to 159 | COC(=O)c1ccc(C2CNN=C2c2ccc(Cl)cc2)cc1 (stereo not given)
3 | 180 to 181 | CC(C)c1ccc(C(=O)C2c3ccccc3Oc3ccccc32)c(C(C)C)c1OS(N)(=O)=O
4 | 300 to 304 | O=C(O)c1ccc(-c2ccc(S(=O)(=O)N3CCCC(CO)C3)cc2)[nH]c1=O (stereo not given)
5 | 96 to 98 | CC(C(=O)CC(C)(C)Cc1ccc(Cl)cc1)N1C(=O)c2ccccc2C1=O (stereo not given)
6 | 119 to 121 | CCOC(=O)c1c[nH]c2ccc(Cc3ccccc3)cc12
7 | 205 | CC1=C(C(=O)OC(C)C)C(c2cccc3ccc(-c4ccccc4)nc23)C([N+](=O)[O-])=C(C)N1 (stereo not given)
8 | 128 to 131 | COc1cccc([C@H]2O[C@H](CC(=O)NCc3ccc(C(=O)O)o3)C(=O)N(CC(C)(C)CO)c3ccc(Cl)cc32)c1OC
9 | 188 to 190 | O=C1c2ccccc2C(=O)N1c1cccc(S(F)(F)(F)(F)F)c1
10 | 223 to 225 | NC(=O)N1C[C@@H](O)[C@H](Oc2ccc(Cl)cc2)C1 (relative stereo)
11 | 174 to 176 | COc1ccc2cc(C(C)NC(=O)NO)ccc2c1 (stereo not given)
12 | 192 to 193 | Nc1nc2ccccc2c2c1nc(CF)n2Cc1cc(-c2ccc(F)cc2)no1
13 | 347 to 349 | NC(=O)c1nc(-c2ccccn2)nc2c1[nH]c(=O)n2-c1ccccc1
14 | 300 | Cn1c(=O)[nH]c(=O)c2nc(-c3ccc(/C=C/C(=O)O)cc3)[nH]c21
15 | 155 to 157 | Cc1nc2ccccc2n2c(-c3cc(OCC(F)c4ccccn4)ccc3Cl)nnc12 (stereo not given)
16 | 188 to 189 | CCCCC(C(=O)Nc1c(C(C)C)cccc1C(C)C)C1c2ccccc2Oc2ccccc21 (stereo not given)
17 | 205 to 206 | Nc1nc2c(c(Nc3ccc(F)cc3)n1)-c1ccccc1C2
18 | 155 | COc1cccc(OC)c1C(=O)P(=S)(C(=O)c1c(OC)cccc1OC)c1ccccc1
19 | 178 to 182 | Cc1ccc(Cc2cnc(NCCN(Cc3ccccc3)c3ccccn3)[nH]c2=O)cn1
20 | 152 | COc1ccc(Cl)cc1C(=O)Nc1ccc(CC(=O)O)cc1
21 | 212 to 213 | COC(=O)CCc1ccc(-n2c(C)cn(-c3ccc(C(=N)NC(=O)OC)cc3)c2=O)cc1
22 | 109 to 112 | COc1cccc(C(=O)NCCCCCCCNC(=O)c2cccc(OC)c2)c1
23 | 223 to 227 | CCC(c1oc2ccccc2c(=O)c1-c1ccc(F)cc1)n1cnc2c(N)ncnc21 (stereo not given)
24 | 139 to 140 | CC(C)c1nn(-c2ccc(C(F)(F)F)cn2)cc1CCCOc1cc(CCC(=O)O)n(-c2ccccc2)n1
25 | > 320 | O=C(CCN1CCCC1)Nc1ccc2nc3ccc(NC(=O)CCN4CCCC4)cc3c(Cl)c2c1
26 | 280 to 284 | COc1cccc(NC(=O)C(C#N)C(=O)c2nn(-c3ccccc3)c3c2Cc2ccccc2-3)c1 (stereo not given)

Row | melting point [°C] | SMILES
27 | 210 to 212 | CC(=O)N1CCc2c(c(=O)c3cccnc3n2-c2ccccc2)C1
28 | 120 to 123 | CS(=O)(=O)OCC1CCN(c2ccc(Br)cc2)C1=O (stereo not given)
29 | 148 to 149 | CCCCOc1ccc2c(=O)n(Cc3ccccc3)[nH]c2c1
30 | 110 to 111 | COc1ccc(C2(Cn3ccnc3)CC(CNc3ccccc3C)ON2C)cc1 (stereo not given)
31 | 125 to 130 | CCCCC1=Nc2ccccc2SN1Cc1ccc(-c2ccccc2C(=O)O)cc1
32 | 110 to 111 | C=CCC1(C(=O)NCc2ccccn2)c2ccccc2-c2ccccc21
33 | 191 to 192 | CCCOc1c(C2CCN(CCCCNC(=O)c3ccc(-c4ccc(C(F)(F)F)cc4)cc3)CC2)ccc2ccccc12
34 | 189 to 191 | O=C(C=Cc1ccc(NS(=O)(=O)c2ccccc2)cc1)NO
35 | 212 to 214 | Cc1nc(NC(=O)c2ccc(Cl)c(Cl)c2)sc1C(=O)NCc1ccccc1
36 | 231 | NS(=O)(=O)c1cccc(NC(=O)c2cnn3c(C(F)F)cc(-c4ccc(OC(F)(F)F)cc4)nc23)c1
37 | 147 to 149 | O=C(OCc1ccccc1)c1ccc(O)c(O)c1
38 | 86 to 93 | CC(C)(C)C(=O)Oc1ccc(-c2nnn(C(C(=O)NCC(=O)O)c3ccccc3)n2)cc1 (stereo not given)
39 | 215 to 216 | O=C(O)[C@H](Cc1ccccc1)Nc1c(NCc2ccccc2)c(=O)c1=O
40 | 189 to 194 | O=C(NC(=O)c1ccccc1)NC1CCCc2sccc21 (stereo not given)
41 | 82 to 84 | COc1ccc(CC2SC(=O)NC2=O)cc1CC(=O)Nc1ccc(Oc2ccccc2)cc1 (stereo not given)
42 | 181 to 182 | CC(C)(C)OC(=O)N1CCC(Cn2cc(S(=O)(=O)c3ccccc3)c3ccccc32)CC1
43 | 65 to 67 | O=S(=O)(Nc1ccc(Cl)cc1C=NOCc1ccc(C(F)(F)F)cc1C(F)(F)F)C(F)(F)F
44 | 164 to 166 | CCCCOC(=O)Nc1nc2ccccc2c2c1nc(CC)n2CCCCNS(C)(=O)=O
45 | > 300 | O=C1C(=O)c2c(nc3cc(Cl)ccn23)-c2ccccc21
46 | 121 to 125 | COc1cc(F)ccc1-c1ccc(S(=O)(=O)N2c3ccccc3CC2C(=O)NCc2ccccc2NCCC(=O)O)cc1 (stereo not given)
47 | 138 to 139 | COc1ccc(CC(=O)N2CCC[C@H]2C(=O)O)cc1
48 | 81 to 87.5 | CCN(CC)CCCCNc1ncc2cc(-c3c(Cl)cccc3Cl)c(NC(=O)Nc3ccccc3)nc2n1
49 | 60 to 63 | Nc1c(Cl)cc(C(O)CNCCCCCCOCCc2ccccc2)cc1Cl (stereo not given)
50 | 236 | Cc1cc(-c2cccnc2)cc2ccc(=O)[nH]c12
51 | 186 to 187 | Nc1nc2ccccc2c2c1nc(CCCOc1ccccc1)n2CCCNC(=O)c1ccc(Br)cc1
52 | 117 to 118 | COc1ccccc1/C=C/CN1CCC(=O)C(C(c2ccccc2)c2ccccc2)C1 (stereo not given)

The remaining lines, values behind:

Row | SMILES | melting point [°C]
53 | CCOC(Cc1ccc(OCc2nc(C(C)(C)C)oc2C)c(C)c1)C(=O)O (stereo not given) | 95 to 97
54 | CCOC(=O)c1c(C2CC2)nc(CC)n1Cc1ccc2oc(-c3ccccc3-c3nnn[nH]3)c(Br)c2c1 | 132 to 137
55 | COC(=O)Cc1cc2c(s1)NC(=S)C(C)N=C2c1ccccc1Cl (stereo not given) | 196 to 197
56 | O=C(O)C[C@H]1CC[C@H](Sc2nc(C3OCCO3)n(Cc3cc4c(cc3Cl)OCO4)c2C(=O)O)CC1 | 145
57 | CNC(=O)c1sc(N2CCN(Cc3ccc(F)cc3)C2=O)nc1C | 225 to 227
58 | Nc1nc(N)c(N=O)c(OCC2CCCCC2)n1 | 254
59 | N#CCC(=O)N1CC=CCC1 | 58 to 59
60 | CCOc1cc(C(F)(F)F)nc(N)n1 | 114 to 116
61 | CCCCCCCCCC(=O)NC(=O)OCc1nc(C(C)C)c(Sc2cc(Cl)cc(Cl)c2)n1Cc1ccncc1 | 84 to 86
62 | c1c[nH]c(C(c2ccc[nH]2)C23CC4CC(CC(C4)C2)C3)c1 | 168 to 169
63 | NC(=O)c1ccc(F)c2c1CC(N(CCCCc1c[nH]c3ccc(F)cc13)C1CCC1)CO2 (stereo not given) | 122
64 | O=c1oc2ccccc2n2cnc(-c3noc(C4CC4)n3)c12 | 234 to 236
65 | N#CC1CN(C(=O)[C@H](NC(=O)c2c[nH]c3ncc(-c4ccc(N5CCOCC5)cc4)nc23)C2CC2)C1 | 186 to 192
66 | CC(CSC(=S)c1cccs1)C(=O)N1CCCC1C(=O)O (stereo not given) | 149 to 150
67 | CCCCCNc1cccc2c1CN(C1CCC(=O)NC1=O)C2=O (stereo not given) | 244 to 246
68 | CCOC(=O)c1c([N+](=O)[O-])c(C)nn1C | 47 to 48
69 | COc1cccc(C2CCC(O)O2)c1 (stereo not given) | 76.5 to 78
70 | CCCC(=O)COS(=O)(=O)c1c(C)cc(C)cc1C | 57.5 to 58.5
71 | Cc1c2c(c(-c3ccccc3)n1C)N(C)C(=O)CN=C2c1ccccc1 | 232 to 234
72 | COc1cc(OC)c2cc(-c3ccc(OC)nc3OC)oc2c1 | 155 to 156
73 | CC(=O)c1ccc(OCCCCl)c(O)c1 | 101 to 103
74 | COc1nccnc1C1(Cl)CN2CCC1CC2 (stereo not given) | 59 to 60

Row | SMILES | melting point [°C]
75 | CC(=O)c1ccc(OC2CCN(C(=O)OC(C)(C)C)CC2)cc1F | 72 to 73
76 | O=c1oc2cc(OCc3nnn[nH]3)cc(OCc3nnn[nH]3)c2c2c1C(c1ccccc1)CCC2 (stereo not given) | 153 to 154
77 | CCNc1c(C(=O)OCC)c(C)nc(N2CCN(C)CC2)c1[N+](=O)[O-] | 59 to 61
78 | CC(=O)Oc1ccc2c(=O)c(C=O)coc2c1 | 157 to 159
79 | CC(=O)c1ccc2c(c1)oc(=O)n2N1CCC(c2noc3cc(F)ccc23)CC1 | 152 to 154
80 | O[C@@H](CNCCOc1ccc2oc(-c3noc(C(F)(F)F)n3)cc2c1)c1cccc(Cl)c1 | 108 to 111
81 | Cc1nnc2c(C(C)Br)ccnn12 (stereo not given) | 125 to 128
82 | Cc1nc(C)c(Cl)c(NCc2nccc(OCCCCN3CCNCC3)c2C)n1 | 140 to 144
83 | C=CC(=O)N(c1cc(-n2ncc(=O)n(C)c2=O)c(F)cc1C#N)S(=O)(=O)CC | 118
84 | CC(=O)N1CCc2c(sc(CCN3CCC(c4noc5cc(F)ccc45)CC3)c2Br)C1 | 114 to 117
85 | CCOC(=O)c1nnc(N2CCN(c3ccc(N4CC(CNC(C)=O)OC4=O)cc3)CC2F)s1 (stereo not given) | 228 to 230
86 | COC1=CCC2=C(CC[C@@H]3[C@@H]2CC[C@@]2(C)[C@H]3CCC23CC(O)CO3)C1 (stereo not given in full) | 152 to 155
87 | Fc1ccc2nc(Cl)c3nnc(C(F)(F)F)n3c2c1 | 135 to 138
88 | CCn1c(=O)c2c(nc(/C=C/c3cccc(OC)c3)n2C)n(CC)c1=O | 153 to 155
89 | O=C(O)CCCCC(=O)NCc1ccc2c(c1)C(=O)N(C1CCC(=O)NC1=O)C2=O (stereo not given) | 144 to 146
90 | CC1(C)CC(=C(c2ccc(O)cc2)c2ccc(OCCO)cc2)CC(C)(C)C1 | 154 to 155
91 | FC(F)(F)c1ccc2cc3[nH]c(=S)[nH]c3nc2c1 | > 320
92 | COc1cc(F)c(C(O)CNCc2csc(NC(C)=O)n2)cc1OC (stereo not given) | 173 to 175
93 | CN(C(=O)C1CCCN(c2ccc([N+](=O)[O-])c(C=C3NC(=O)NC3=O)c2)C1)C1CCCCC1 (stereo not given) | 153 to 162
94 | Cc1[nH]cnc1CON1C(=O)c2ccccc2C1=O | 155 to 156
95 | CCc1cc(C)cc(CC)c1C1C(=O)CC(CC(C)S(=O)(=O)CC)CC1=O (stereo not given) | 62 to 65
